Reference: patent US5214036A, “Benzoporphyrin derivatives for photodynamic therapy” (University of British Columbia, priority 1990, dated 1993)

How the values were obtained:
[1] = tested on: VLDL; experiment: Step density gradient of BPD added to isolated lipoprotein fraction; type: in vitro ADME, human; settings: added to lipoprotein fraction after separation of albumin, % of total added
Method: (§1) (b) Determining BPD Plasma Distribution. Experiments were performed to determine the association of BPDs with plasma protein and lipoprotein fractions. When density ultracentrifugation was used for the analysis, 2 ml samples of human plasma were incubated for 18 hours at 4° C. in the presence of 100 μg of ^3 H-BPD-MA. The BPD-plasma solution was then adjusted to a density of 1.21 g/ml by the addition of solid KBr. A step gradient was prepared using stock KBr density solutions at 1.006, 1.019, and 1.063 g/ml, layered manually into the bottom of centrifuge tubes using a glass syringe and a narrow bore needle. The BPD-plasma solution was then layered into the bottom of the tube. Separation of the plasma proteins was accomplished by centrifugation in a Beckman SW 41 rotor for 24 hours at 40,000 rpm and 15° C. 0.5 ml fractions were collected, and the protein content of each fraction was monitored by measuring absorbance at 280 nm. 100 μl of each fraction was mixed with 5 ml Aquasol (NEN) and counted in a liquid scintillation counter.
(§2) To improve the HDL-albumin resolution, albumin was removed by ultracentrifugation. Plasma was mixed with ^14 C-BPD-MA and incubated for 18 hours at 4° C. The density of the mixture was then adjusted to 1.21 g/ml by the addition of solid KBr, followed by centrifugation at 40,000 rpm for 48 hours. […] The lipoprotein and lipoprotein-depleted fractions were counted for BPD-MA content. 82% of total ^14 C-BPD-MA added was recovered in the plasma lipoprotein fraction and 5% in the lipoprotein deficient fraction.
(§3) When albumin and other serum proteins were separated from the lipoprotein fraction before the addition of ^14 C-BPD-MA, a shift in binding was observed. After step density gradient separation, the majority of BPD-MA was still recovered with HDL (38% of total ^14 C-BPD-MA added); however in this case, the association with LDL and VLDL fractions appeared to be equivalent (17% with LDL and 18% with VLDL) (FIG. 5). […] Polyacrylamide gel electrophoresis of the HDL fractions from these density gradients confirmed that very little albumin was present. […]

[2] = tested on: HDL; experiment: as above; type: in vitro ADME, human; settings: added to lipoprotein fraction after separation of albumin, % of total added
Method: as §1, §2, §3

[3] = tested on: LDL; experiment: as above; type: in vitro ADME, human; settings: added to lipoprotein fraction after separation of albumin, % of total added
Method: as §1, §2, §3

[4] = Absorption spectrum / absorption maximum; type: physicochemical; settings: FIG. 3
[5] = tested on: high density lipoproteins (HDLs); settings: Barel et al.; cited from earlier work
[6] = background; cited from earlier work

| associated with VLDL [1] [%] | recovered with HDL [2] [%] | associated with LDL [3] [%] | major absorption peak [4] | SMILES | affinity for high density lipoproteins [5] | additional absorbance [6] | maximum absorbance [6] |
| --- | --- | --- | --- | --- | --- | --- | --- |
| 20 | 54 | 13 | about 685 nm | C=Cc1c(C)c2cc3nc(cc4[nH]c(cc5nc(cc1[nH]2)C(C)=C5CCC(=O)O)c(CCC(=O)O)c4C)C1(C)C3=CC=C(C(=O)OC)C1C(=O)OC (stereo not shown) [BPD-DA] | – | – | – |
| – | – | – | – | CC1=C(CCC(=O)O)c2cc3[nH]c(cc4nc(cc5[nH]c(cc1n2)c(C)c5C(C)O)C(C)=C4C(C)O)c(C)c3CCC(=O)O (stereo not shown) [hematoporphyrin] | higher affinity for high density lipoproteins (HDLs) | around 630 nm | around 400 nm |
